Assays:
[1] = tested on: E. coli bacteria; assay: Inhibition of bacterial growth in culture; format: cell-based; details: E. coli incubated 5 and 24 hours at 37° C, streaked on LB-agar overnight
Description: Example 9 illustrates the anti-microbial effects of extracts including the active chemical agents on cells. A dried, powdered, formulation of a 1:1 mixture of the wheat grass extract and white willow bark extract prepared in Example 1 above was tested for its ability to inhibit bacterial growth in culture. The formulation was reconstituted in 10 ml of LB broth (Amersham Biosciences, Inc.). The broth was then inoculated with E. coli bacteria and incubated for 5 and 24 hours at 37° C. 20 μl of the cultures were streaked on LB-agar plates and incubated overnight at 37° C. […] An additional control experiment was conducted with the known antibacterial agent, SNAP. One μg/ml SNAP was added to LB broth. The broth was then inoculated with E. coli bacteria and incubated for 5 and 24 hours at 37° C. 20 μl of the cultures were streaked on LB-agar plates and incubated overnight at 37° C. Bacterial growth was decreased in the SNAP culture at 5 and 24 hours, as compared to the control.

[2] = tested on: SK-N-MC (ATCC # HBT-10) cells; assay: NO determination of SK-N-MC cells treated with plant extractions; format: cell-based; details: 6 mg of crude extraction
Description: Employing the isolation and purification techniques described above, a variety of herbaceous plants were analyzed for their ability to release cNOS—derived nitric oxide in the pedal ganglia and in publicly available SK-N-MC (ATCC # HBT-10) and PC-12 (ATCC # CRL 1721) cells. In Table I, a plus sign indicates detection of at least 1 nM nitric oxide. […] In Table II, results in the SK-N-MC cell line are set forth; the concentration of plant material used and the quantity of NO detected is indicated. […] In Table III, results are set forth for the identical procedures performed using the ganglia cell line. The types of plant materials employed are indicated, for example flowers, leaves, roots, rhizomes, stems, bark. Where not specified, leaves were employed.

| SMILES | bacterial growth versus control (LB broth alone) [1] | Results (nM), NO determination of SK-N-MC cells [2] [nM] |
| --- | --- | --- |
| CC(=O)NC(C(=O)O)C(C)(C)SN=O (racemic) [SNAP, S-nitroso-N-acetyl-DL-penicillamine] | decreased |  |
| O=c1c(O)c(-c2ccc(O)c(O)c2)oc2cc(O)cc(O)c12 [Quercetine] |  | 14 |
